Experimental data taken from US9233971B2, “Lipomacrocycles and uses thereof” (priority 2010, dated 2016).

system: APOB mRNA in liver; assay: In vivo gene knockdown, lipid particle siRNA formulation (Example 4), APOB siRNA; set-up: species or system CD1 mice; conditions: lipid particles, APOB siRNA, dose 0.8 mg/kg intravenously, CD1 mice, liver harvested three days later, real-time RT-PCR, GAPDH reference
Method: (§1) Lipid Particle formulations were made by first mixed siRNA in an aqueous solution with DOTMA in organic solvent to produce a water-insoluble precipitate. After isolating and drying the precipitate, the precipitate was dissolved in chloroform and further mixed with other lipids as following: Each lipid particle formulation was consisting of 1 part DOTMA+siRNA complex/5 parts any lipomacrocycle compound (Table 1)/1.5 parts N 6-tetrakis (3-aminopropyl)-1,3-propanediamine cholesteryl carbamate/2.2 parts 1,2-dilinoleoyl-sn-glycero-3-phosphoethanolamine/10.08 parts cholesterol PEG-660/4.32 parts cholesterol PEG-660/0.6 parts cholesterol (weight/weight). All the components were dissolved in chloroform and mixed together. Then, the mixtures were dried overnight in Speedvac. The dried formulations were hydrated by adding in certain amount of 5% dextrose water before dosing to animals intravenously.
(§2) All procedures used in animal studies conducted were approved by the Institutional Animal Care and Use Committee (IACUC) and were consistent with local, state and federal regulations as applicable. Mice, rats, and rabbits received siRNA formulations intravenously at dose volume of 0.2 ml, 1 ml, or 10 ml, respectively. Animals were sacrificed 2 to 7 days later. Tissues were harvested and mRNA was isolated with Turbocapture kit (Qiagen) for analyzing change of gene expression with real-time RT-PCR method (SensiMix SYBR One-Step Kit, Bioline). Serum was harvested for analyzing blood chemistry.
(§3) CD1 mice were dosed with lipid particle (Table 1) or liposome (Table 2) siRNA formulation intravenousely and the different tissues were harvested three days later. The gene expression was analyzed with real-time RT-PCR method (for liver, GAPDH as reference gene; for lung and bone marrow, GAPDG and β-actin as reference genes).

| SMILES | Targeted mRNA remain in liver |
| --- | --- |
| CCCCCCCCCCCCCCOCC(O)CN(CCCN(C)CCCN(CC(O)COCCCCCCCCCCCCCC)CC(O)COCCCCCCCCCCCCCC)CC(O)COCCCCCCCCCCCCCC (stereo not drawn) [Compound B1C1] | 0.82 |
| CCCCCCCCCCCCCCOCC(O)CN(CCCN(CCCN(CC(O)COCCCCCCCCCCCCCC)CC(O)COCCCCCCCCCCCCCC)CCCN(CC(O)COCCCCCCCCCCCCCC)CC(O)COCCCCCCCCCCCCCC)CC(O)COCCCCCCCCCCCCCC (stereo not drawn) [TaC1] | 0.81 |

same assay, conditions: lipid particles, APOB siRNA, dose 1 mg/kg intravenously, CD1 mice, liver harvested three days later, real-time RT-PCR, GAPDH reference

| SMILES | Targeted mRNA remain in liver |
| --- | --- |
| CCCCCCCCCCCCOCC(O)CN1CCN(CC(O)COCCCCCCCCCCCC)CCN(CC(O)COCCCCCCCCCCCC)CCN(CC(O)COCCCCCCCCCCCC)CCN(CC(O)COCCCCCCCCCCCC)CCN(CC(O)COCCCCCCCCCCCC)CC1 (stereo not drawn) [Compound M10C8] | 0.06 |

same assay, conditions: lipid particles, APOB siRNA, dose 3 mg/kg intravenously, CD1 mice, liver harvested three days later, real-time RT-PCR, GAPDH reference

| SMILES | Targeted mRNA remain in liver |
| --- | --- |
| CC(C)CCC[C@@H](C)[C@H]1CC[C@H]2[C@@H]3CC=C4C[C@@H](OC(=O)N5CCN(Cc6ccccc6)CCNCCN(Cc6ccccc6)CC5)CC[C@]4(C)[C@H]3CC[C@]12C [Compound M6ch1] | 0.86 |
| CC(C)CCC[C@@H](C)[C@H]1CC[C@H]2[C@@H]3CC=C4C[C@@H](OC(=O)N5CCNCCNCCNCCNCCNCC5)CC[C@]4(C)[C@H]3CC[C@]12C [Compound M10ch1] | 0.39 |
| CC(C)CCC[C@@H](C)[C@H]1CC[C@H]2[C@@H]3CC=C4C[C@@H](OC(=O)NCCN(CCN)CCN)CC[C@]4(C)[C@H]3CC[C@]12C [Compound T5ch1] | 0.39 |

same assay, conditions: ranking based on the results of Table 1 (lipid particles, APOB and SSB siRNA)

| SMILES | performance of the lipid molecules, best compounds |
| --- | --- |
| CCCCCCCCCCCCOCC(O)CN1CCN(CC(O)COCCCCCCCCCCCC)CCN(CC(O)COCCCCCCCCCCCC)CCN(CC(O)COCCCCCCCCCCCC)CCN(CC(O)COCCCCCCCCCCCC)CCN(CC(O)COCCCCCCCCCCCC)CC1 (stereo not drawn) [Compound M10C8] | best |

system: SSB mRNA in liver; assay: In vivo gene knockdown, lipid particle siRNA formulation (Example 4), SSB siRNA; conditions: lipid particles, dose 3 mg/kg intravenously, CD1 mice, liver harvested three days later, real-time RT-PCR, GAPDH reference
Method: as §1, §2, §3

| SMILES | Targeted mRNA remain in liver |
| --- | --- |
| CCCCC(CC)COCC(O)CN1CCN(CC(O)COCC(CC)CCCC)CCN(CC(O)COCC(CC)CCCC)CCN(CC(O)COCC(CC)CCCC)CCN(CC(O)COCC(CC)CCCC)CCN(CC(O)COCC(CC)CCCC)CC1 (stereo not drawn) [Compound M10C3] | 0.43 |
| CCCCCCCCCCC(O)CN1CCN(CC(O)CCCCCCCCCC)CCN(CC(O)CCCCCCCCCC)CCN(CC(O)CCCCCCCCCC)CCN(CC(O)CCCCCCCCCC)CCN(CC(O)CCCCCCCCCC)CC1 (stereo not drawn) [Compound M10C4] | 0.63 |

same assay, conditions: lipid particles, dose 3.2 mg/kg intravenously, CD1 mice, liver harvested three days later, real-time RT-PCR, GAPDH reference

| SMILES | Targeted mRNA remain in liver |
| --- | --- |
| CCCCCCCCCCCCCCC(O)CN1CCN(Cc2ccccc2)CCN(CC(O)CCCCCCCCCCCCCC)CCN(CC(O)CCCCCCCCCCCCCC)CC1 (stereo not drawn) [Compound M1C7] | 0.35 |
| CCCCCCCCCCCCCCOCC(O)CN1CCN(Cc2ccccc2)CCN(CC(O)COCCCCCCCCCCCCCC)CCN(Cc2ccccc2)CC1 (stereo not drawn) [Compound M6C1] | 0.64 |

system: SSB mRNA in liver; assay: In vivo gene knockdown, liposomal siRNA formulation (Example 3), SSB siRNA; set-up: species or system CD1 mice; conditions: liposomal formulation, SSB siRNA, dose 3.2 mg/kg intravenously, CD1 mice, liver harvested three days later, real-time RT-PCR, GAPDH reference
Method: Each liposome formulation was made by mixing lipids of each lipomacrocycle compound (Table 1) combined with DSPC, DMG-PEG 2K, and cholesterol at the weight ratio of 3.85:0.42:0.21:0.79 in ethanol and siRNA in water. Then 5% dextrose water was added in each formulation before dosing to mice.
as §2, §3

| SMILES | Targeted mRNA remain in liver |
| --- | --- |
| CCCCCCCCCCCCCCOCC(O)CN(CCCN(C)CCCN(CC(O)COCCCCCCCCCCCCCC)CC(O)COCCCCCCCCCCCCCC)CC(O)COCCCCCCCCCCCCCC (stereo not drawn) [Compound B1C1] | 0.13 |
| CCCCCCCCCCOCC(O)CN(CCCN(C)CCCN(CC(O)COCCCCCCCCCC)CC(O)COCCCCCCCCCC)CC(O)COCCCCCCCCCC (stereo not drawn) [Compound B1C2] | 0.68 |
| CCCCCCCCCCOCC(O)CN(CCCN1CCN(CCCN(CC(O)COCCCCCCCCCC)CC(O)COCCCCCCCCCC)CC1)CC(O)COCCCCCCCCCC (stereo not drawn) [Compound B2C2] | 0.36 |
| CCCCCCCCCCCCC(O)CN(CCCN1CCN(CCCN(CC(O)CCCCCCCCCCCC)CC(O)CCCCCCCCCCCC)CC1)CC(O)CCCCCCCCCCCC (stereo not drawn) [Compound B2C6] | 0.08 |
| CCCCC(CC)COCC(O)CN(CCCN(CC(O)COCC(CC)CCCC)CC(O)COCC(CC)CCCC)CCCN(CC(O)COCC(CC)CCCC)CC(O)COCC(CC)CCCC (stereo not drawn) [Compound D1C3] | 0.18 |
| CCCCCCCCCCCCCCC(O)CN(CCCN(CC(O)CCCCCCCCCCCCCC)CC(O)CCCCCCCCCCCCCC)CCCN(CC(O)CCCCCCCCCCCCCC)CC(O)CCCCCCCCCCCCCC (stereo not drawn) [Compound D1C7] | 0.52 |
| CCCCC(CC)COCC(O)CN1CCN(Cc2ccccc2)CCN(CC(O)COCC(CC)CCCC)CCN(CC(O)COCC(CC)CCCC)CC1 (stereo not drawn) [Compound M1C3] | 0.64 |
| CCCCCCCCCCCCCCCCC(O)CN1CCN(Cc2ccccc2)CCN(CC(O)CCCCCCCCCCCCCCCC)CCN(CC(O)CCCCCCCCCCCCCCCC)CC1 (stereo not drawn) [Compound M1C5] | 0.6 |
| CCCCCCCCCCCCCCC(O)CN1CCN(Cc2ccccc2)CCN(CC(O)CCCCCCCCCCCCCC)CCN(CC(O)CCCCCCCCCCCCCC)CC1 (stereo not drawn) [Compound M1C7] | 0.47 |
| CCCCCCCCCCCCCCOCC(O)CN1CCN(Cc2ccccc2)CCN(CC(O)COCCCCCCCCCCCCCC)CCN(Cc2ccccc2)CC1 (stereo not drawn) [Compound M6C1] | 0.98 |
| CCCCCCCCCCCCC(O)CN1CCN(Cc2ccccc2)CCN(CC(O)CCCCCCCCCCCC)CCN(Cc2ccccc2)CC1 (stereo not drawn) [Compound M6C6] | 0.8 |
| CCCCC(CC)COCC(O)CN(CCCN(CCCCN(CCCN(CC(O)COCC(CC)CCCC)CC(O)COCC(CC)CCCC)CCCN(CC(O)COCC(CC)CCCC)CC(O)COCC(CC)CCCC)CCCN(CC(O)COCC(CC)CCCC)CC(O)COCC(CC)CCCC)CC(O)COCC(CC)CCCC (stereo not drawn) [Compound T4C3] | 0.12 |
| CCCCCCCCCCCCCCOCC(O)CN(CCN(CCN(CC(O)COCCCCCCCCCCCCCC)CC(O)COCCCCCCCCCCCCCC)CCN(CC(O)COCCCCCCCCCCCCCC)CC(O)COCCCCCCCCCCCCCC)CC(O)COCCCCCCCCCCCCCC (stereo not drawn) [Compound T5C1] | 0.13 |
| CCCCC(CC)COCC(O)CN(CCN(CCN(CC(O)COCC(CC)CCCC)CC(O)COCC(CC)CCCC)CCN(CC(O)COCC(CC)CCCC)CC(O)COCC(CC)CCCC)CC(O)COCC(CC)CCCC (stereo not drawn) [Compound T5C3] | 0.43 |
| CCCCCCCCCCC(O)CN(CCN(CCN(CC(O)CCCCCCCCCC)CC(O)CCCCCCCCCC)CCN(CC(O)CCCCCCCCCC)CC(O)CCCCCCCCCC)CC(O)CCCCCCCCCC (stereo not drawn) [Compound T5C4] | 0.41 |
| CCCCC(CC)COCC(O)CN(CCN(C)CCN(CC(O)COCC(CC)CCCC)CC(O)COCC(CC)CCCC)CC(O)COCC(CC)CCCC (stereo not drawn) [MdC3] | 0.24 |
| CCCCCCCCCCCCCCCCC(O)CN(CCN(C)CCN(CC(O)CCCCCCCCCCCCCCCC)CC(O)CCCCCCCCCCCCCCCC)CC(O)CCCCCCCCCCCCCCCC (stereo not drawn) [MdC5] | 0.45 |
| CCCCCCCCCCCCC(O)CN(CCN(C)CCN(CC(O)CCCCCCCCCCCC)CC(O)CCCCCCCCCCCC)CC(O)CCCCCCCCCCCC (stereo not drawn) [MdC6] | 1.1 |
| CCCCCCCCCCCCCCC(O)CN(CCN(C)CCN(CC(O)CCCCCCCCCCCCCC)CC(O)CCCCCCCCCCCCCC)CC(O)CCCCCCCCCCCCCC (stereo not drawn) [MdC7] | 0.25 |
| CCCCCCCCCCOCC(O)CN(CCCN(CCCN(CC(O)COCCCCCCCCCC)CC(O)COCCCCCCCCCC)CC(O)COCCCCCCCCCC)CCCN(CC(O)COCCCCCCCCCC)CC(O)COCCCCCCCCCC (stereo not drawn) [NsC2] | 0.1 |
| CCCCCCCCCCC(O)CN(CCCN(CCCN(CC(O)CCCCCCCCCC)CC(O)CCCCCCCCCC)CC(O)CCCCCCCCCC)CCCN(CC(O)CCCCCCCCCC)CC(O)CCCCCCCCCC (stereo not drawn) [NsC4] | 0.13 |
| CCCCCCCCCCCCCCC(O)CN(CCCN(CCCN(CC(O)CCCCCCCCCCCCCC)CC(O)CCCCCCCCCCCCCC)CC(O)CCCCCCCCCCCCCC)CCCN(CC(O)CCCCCCCCCCCCCC)CC(O)CCCCCCCCCCCCCC (stereo not drawn) [NsC7] | 0.1 |
| CCCCCCCCCCCCCCOCC(O)CN(CCCN(CCCN(CC(O)COCCCCCCCCCCCCCC)CC(O)COCCCCCCCCCCCCCC)CCCN(CC(O)COCCCCCCCCCCCCCC)CC(O)COCCCCCCCCCCCCCC)CC(O)COCCCCCCCCCCCCCC (stereo not drawn) [TaC1] | 0.1 |
| CCCCCCCCCCOCC(O)CN(CCCN(CCCN(CC(O)COCCCCCCCCCC)CC(O)COCCCCCCCCCC)CCCN(CC(O)COCCCCCCCCCC)CC(O)COCCCCCCCCCC)CC(O)COCCCCCCCCCC (stereo not drawn) [TaC2] | 0.13 |
| CCCCCCCCCCC(O)CN(CCCN(CCCN(CC(O)CCCCCCCCCC)CC(O)CCCCCCCCCC)CCCN(CC(O)CCCCCCCCCC)CC(O)CCCCCCCCCC)CC(O)CCCCCCCCCC (stereo not drawn) [TaC4] | 0.12 |
| CCCCCCCCCCCCC(O)CN(CCCN(CCCN(CC(O)CCCCCCCCCCCC)CC(O)CCCCCCCCCCCC)CCCN(CC(O)CCCCCCCCCCCC)CC(O)CCCCCCCCCCCC)CC(O)CCCCCCCCCCCC (stereo not drawn) [TaC6] | 0.17 |
| CCCCCCCCCCCCCCC(O)CN(CCCN(CCCN(CC(O)CCCCCCCCCCCCCC)CC(O)CCCCCCCCCCCCCC)CCCN(CC(O)CCCCCCCCCCCCCC)CC(O)CCCCCCCCCCCCCC)CC(O)CCCCCCCCCCCCCC (stereo not drawn) [TaC7] | 0.33 |

same assay, conditions: ranking based on the results of Table 2 (liposomal formulation, SSB and APOB siRNA)

| SMILES | performance of the lipid molecules, best performing compounds |
| --- | --- |
| CCCCCCCCCCCCC(O)CN(CCCN1CCN(CCCN(CC(O)CCCCCCCCCCCC)CC(O)CCCCCCCCCCCC)CC1)CC(O)CCCCCCCCCCCC (stereo not drawn) [Compound B2C6] | best performing |
